Values of other authors in patent US5631296A, “Drugs containing S(+)-ibuprofen” (priority 1992, dated 1997).

What was measured:
[1] = system: serum proteins; settings: stereoselective
[2] = system: cyclooxygenase subunit of the enzyme prostaglandin synthease
[3] = comparatively low dosage
[4] = system: rhesus monkeys
[5] = system: skin inflammation; settings: healthy test subjects, relative to racemate
[6] = system: arthritic patients; settings: daily dose well below the conventional racemate dosage
[7] = system: humans; settings: U.S. Pat. No. 4,851,444

SMILES | toxic effects directly attributable to accumulation of R(-) in fatty tissue (chronic administration of the racemate) | accumulation of the R(-) enantiomer in the fatty tissue (in vivo) | binding to the serum proteins [1] | inhibition of prostaglandin synthesis (mechanism of action found in vitro) [2] | therapeutic action relative to the racemate [3] | analgesic action [4] | dose-effect curve in skin inflammation model [5] | therapeutic effect in arthritic patients [6] | onset and intensity of analgesic effect versus identical amounts of the racemate [7]
CC(C)Cc1ccc(C(C)C(=O)O)cc1 (racemic) [racemate, 2-(4-isobutylphenyl)propionic acid] | no toxic effects have so far been observed | leads to an accumulation of the R(-) enantiomer in the fatty tissue |  |  |  |  |  |  | 
CC(C)Cc1ccc([C@@H](C)C(=O)O)cc1 [R(-)-ibuprofen] |  |  | competing for the binding site |  |  |  |  |  | 
CC(C)Cc1ccc([C@H](C)C(=O)O)cc1 [S(+)-ibuprofen] |  |  | competing for the binding site | found in vitro only for the S(+) enantiomer | the same therapeutic action as the racemate | stronger analgesic action | shifted towards lower dosage relative to that of the racemate | good therapeutic effect | starts more rapidly and is more intense
